The supplement of paper PMC10307832

Legend:
Experiment in all cases: relative viability (nuclei count vs DMSO), 5 days (fraction); higher = more cells survive
[1] = compound: C[C@@H](N)c1ccc(C(=O)Nc2ccnc3[nH]ccc23)cc1 + NC(=O)Nc1cc(-c2cccc(F)c2)sc1C(=O)N[C@H]1CCCNC1 [AZD7762] (partner 0.2 µM)
Procedure, shortened: (§1)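 Values are medians from duplicate plates. Each reflects relative viability, defined as the nuclei count of treated wells over that of vehicle wells. Lung cancer cell lines in 1536-well plates were pin-tool dosed one day after seeding with one drug alone or with a fixed anchor-drug dose plus five library-drug doses (not always all listed) in √10 steps, then fixed, stained and imaged at 4× after 5 days.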

[2] = compound: O[C@H]1CC[C@H](Nc2ncc3nc(Nc4c(F)cc(F)cc4F)n([C@H]4CCOC4)c3n2)CC1 [Tanzisertib] + COc1cc2c(Oc3ccc(NC(=O)C4(C(=O)Nc5ccc(F)cc5)CC4)cc3F)ccnc2cc1OCCCN1CCOCC1 [Foretinib] (partner 0.25 µM)
Procedure, shortened: as §1

[3] = compound: O[C@H]1CC[C@H](Nc2ncc3nc(Nc4c(F)cc(F)cc4F)n([C@H]4CCOC4)c3n2)CC1 [Tanzisertib] + Cc1nc(Nc2ncc(C(=O)Nc3c(C)cccc3Cl)s2)cc(N2CCN(CCO)CC2)n1 [Dasatinib] (partner 0.075 µM)
Procedure, shortened: as §1

[4] = compound: C1CNCCC1C2=CC(=NN2)C3=CC=NC=C3 + Nc1nc2[nH]cc(CCc3ccc(C(=O)N[C@@H](CCC(=O)O)C(=O)O)cc3)c2c(=O)[nH]1 [Pemetrexed] (partner 0.2 µM)
Procedure, shortened: as §1

Cell Line	relative viability ([1]; first compound 0.04 µM)	relative viability ([1]; first compound 0.1265 µM)	relative viability ([1]; first compound 0.4 µM)	relative viability ([1]; first compound 1.265 µM)	relative viability ([1]; first compound 4 µM)	relative viability ([2]; first compound 0.08 µM)	relative viability ([2]; first compound 0.253 µM)	relative viability ([2]; first compound 0.8 µM)	relative viability ([2]; first compound 2.53 µM)	relative viability ([2]; first compound 8 µM)	relative viability ([3]; first compound 0.08 µM)	relative viability ([3]; first compound 0.253 µM)	relative viability ([3]; first compound 0.8 µM)	relative viability ([3]; first compound 2.53 µM)	relative viability ([3]; first compound 8 µM)	relative viability ([4]; first compound 0.08 µM)	relative viability ([4]; first compound 0.8 µM)	relative viability ([4]; first compound 2.53 µM)	relative viability ([4]; first compound 8 µM)
NCI-H727	1.04	0.801	0.788	0.996	0.833	0.88	1.02	0.662	0.936	0.91	0.489	0.286	0.403	0.349	0.271				
HARA	0.275	0.266	0.3	0.965	0.311	0.817	0.925	0.86	0.889	0.74	0.279	0.246	0.254	0.278	0.265	0.238	0.236	0.228	0.159
NCI-H2228						0.961	0.869	0.928	0.733	0.68	0.624	0.524	0.537	0.462	0.433	0.31	0.373	0.384	0.356
LCLC-97TM1	0.302	0.234	0.425	0.314	0.639	0.928	0.945	0.89	0.854	0.946	0.953	0.878	0.831	0.786	0.901	0.186	0.161	0.17	0.173
LC-2-ad	0.763	0.787	0.823	0.787	0.599	0.924	0.913	0.908	0.877	0.884	0.789	0.642	0.686	0.684	0.403	0.261	0.291	0.273	0.281
SK-LU-1						0.837	0.755	0.807	0.815	0.781	0.212	0.165	0.18	0.148	0.165	0.955	1.04	1.04	0.976
EKVX	0.708	0.714	0.896	0.745	0.707	1.08	0.681	0.759	0.872	0.497	0.467	0.565	0.55	0.503	0.411	0.423		0.427	0.404
HCC-827		0.286	0.247	0.329	0.275	1.13	1.1	1.07	0.814	0.389	0.457	0.26	0.35	0.201	0.105	0.222	0.238	0.132	0.262
NCI-H650		1.09	0.992		0.886	0.979	1.07	1.04	1.09	1.08	0.44	0.463	0.443	0.47	0.309	0.956	0.967	0.951	1.02
CAL-12T	0.625	0.682	0.606	0.784	0.803	1.11	1.13	1.05	1.25	1.07	0.453	0.343	0.375	0.314	0.319	1.22	1.32	1.21	1.09
NCI-H2342	0.508	0.643	0.534	0.611	0.584	1.21	0.977	1.03	0.982	1.08	0.32	0.311	0.308	0.283	0.32	0.725	0.711	0.759	0.787
SW 900	0.772	0.698	0.661	0.777	0.878	1.02	0.784	1.07	0.924	0.787	0.692	0.574	0.585	0.621	0.496	0.497		0.5	0.454
IA-LM						1.02	1.28	1.04	1.28	1.09									
EPLC-272H	0.0944	0.216	0.18		0.439	0.737	0.692	0.714	0.65	0.666	0.416	0.373	0.367	0.359	0.333	0.298	0.317	0.38	0.412
A-427	0.708	0.751	0.779	0.806	0.665	1.18	1.05	1.02	0.939	1.04	0.778	0.684	0.65	0.646	0.808	0.967	0.996	0.982	0.94
NCI-H647	0.397	0.423	0.517	0.392	0.439	1.23	1.25	1.11	1.29	1.12	0.226	0.201	0.142	0.189	0.149	0.176	0.146	0.174	0.189
NCI-H1975	0.593	0.613	0.688	0.513	0.434	0.968	0.968	1.03	0.946	0.841	0.421	0.446	0.365	0.356	0.329	0.313	0.307	0.303	0.29
NCI-H358	0.605	0.47	0.485	0.478	0.472	0.774	0.589	0.694	0.73	0.442	0.185	0.159	0.164	0.151	0.131	0.181	0.176	0.178	0.157
PC-3 [JPC-3]	1.09	0.87	0.925	1.05	0.912	1.07	1.06	1.08	1.06	0.889	0.912	1.04	1.01	0.977	0.886	0.966	1.22	1.15	0.998
NCI-H1792	0.564	0.534	0.69	0.72	0.578						0.819	0.685	0.78	0.724	0.552	0.909	0.73	0.831	0.849
NCI-H596	1.02	1.1	0.828	1.01	1.04	0.723	0.82	0.724	0.699	0.76	0.673	0.614	0.541	0.53	0.459	0.483	0.476	0.525	0.478
RERF-LC-KJ	1.08	1.04	1.33	1.08	1.18	0.929	0.788	0.873	0.841	0.842	0.95	0.814	0.912	0.685	0.744	0.464	0.493	0.516	0.463

Cell Line	relative viability ([1]; first compound 0.04 µM)	relative viability ([1]; first compound 0.1265 µM)	relative viability ([1]; first compound 0.4 µM)	relative viability ([1]; first compound 1.265 µM)	relative viability ([1]; first compound 4 µM)	relative viability ([2]; first compound 0.08 µM)	relative viability ([2]; first compound 0.253 µM)	relative viability ([2]; first compound 0.8 µM)	relative viability ([2]; first compound 2.53 µM)	relative viability ([2]; first compound 8 µM)	relative viability ([3]; first compound 0.08 µM)	relative viability ([3]; first compound 0.253 µM)	relative viability ([3]; first compound 0.8 µM)	relative viability ([3]; first compound 2.53 µM)	relative viability ([3]; first compound 8 µM)	relative viability ([4]; first compound 0.08 µM)	relative viability ([4]; first compound 0.8 µM)	relative viability ([4]; first compound 2.53 µM)	relative viability ([4]; first compound 8 µM)
NCI-H322M	0.544	0.66	0.647	0.837	0.777	1.02	0.962	0.886	0.961	0.97	0.243	0.248	0.275	0.249	0.262	0.636	0.589	0.641	0.667
COR-L 105						0.99	1.03	1.32	1.27	0.719	0.397	0.356	0.297	0.354	0.255	1.19	1.19	1.12	1.06
NCI-H2023						0.853	0.874	0.936	0.901	0.646	0.677	0.616	0.536	0.606	0.497	0.206	0.222	0.224	0.241
EBC-1						0.102	0.093	0.104	0.117	0.109									
ABC-1		0.861	0.808		0.554	0.91	1.14	0.909	0.876	0.706	0.586	0.604	0.523	0.614	0.597				
NCI-H520						0.792	0.734	0.83	0.753	0.757	0.233	0.207	0.232	0.192	0.23	0.652	0.743	0.637	0.517
NCI-H1650						1.3	0.984	1.07	1.15	0.776	0.319	0.305	0.273	0.283	0.28	0.374	0.422	0.331	0.381
SK-MES-1						0.971	0.917	0.889	0.992	0.7	0.39	0.35	0.337	0.32	0.212	0.985	0.9	0.989	0.94
NCI-H1563						0.983	0.854	0.896	0.96	0.72	0.435	0.479	0.451	0.471	0.436	0.818	0.662	0.961	0.904
NCI-H1648	0.951	1.01	0.924	1.61	1.35											0.671	0.57		0.828
NCI-H1299						1.08	1.1	1.09	1.15	1.23									
A549						0.98	0.951	0.97	0.87	0.839									
NCI-H1623						0.956	0.815	0.912	0.834	0.788	0.59	0.572	0.608	0.455	0.514				
NCI-H1703		0.125	0.131		0.105	0.406	0.371	0.359	0.262	0.261									
NCI-H661						1.07	0.999	1	1.04	0.995	1.01	0.867	0.971	0.785	0.868	0.967	0.942	0.939	0.891
NCI-H2009						1.21	1.19	1.24	1.27	1.03	0.324	0.318	0.296	0.308	0.24	0.958	1.05	0.992	1.03
HCC-44	1.07	1.01	1.09	1.26	1.09											0.678	0.659	0.64	0.613
NCI-H522	0.833	0.759	0.979	0.971	0.813						0.937	0.974	0.845	0.855	0.884	0.844	1.13	0.934	1.26
Calu-6						0.955	0.951	0.799	0.841	0.789									
COR-L23						1.01	0.966	1	1.13	1	0.527	0.473	0.491	0.494	0.396	0.192	0.212	0.193	0.192
SW 1573						0.73	0.92	0.898	0.933	0.819	0.595	0.662	0.46	0.552	0.513		0.881	0.912	0.992
